Results: patent US9937182B2, “Therapeutic strategies for the treatment of preeclampsia” (UNIVERSITY OF IOWA RESEARCH FOUNDATION, priority 2013, dated 2018)
“Also recorded” adds a separate entry of the source.

Test system: C57Bl/6J mice
Test: Vasopressin infusion (240 ng/hr) during pregnancy, preeclampsia-like phenotypes
Format: in vivo
Protocol: Animal Studies: Female C57Bl/6J mice were obtained from Jackson Laboratories between 8-12 weeks of age. Osmotic minipumps infusing vasopressin (240 ng/hr) or saline vehicle were inserted into the subcutaneous space via incision between the scapulae. Following three days of recovery, females were mated with male C57Bl/6J mice. Presence of a vaginal plug indicated gestational day 0.5. Blood pressure was tracked before mating and throughout gestation by tail-cuff plethysmography. On gestational day 18, females were sacrificed for necropsy. Pup weight was recorded. Dam kidney sections were generated and imaged by electron microscopy by the University of Iowa Department of Pathology. All studies were approved by the University of Iowa Animal Care and Use Committee (ACURF #1211239).

[1] = vasopressin 240 ng/hr sc infusion vs saline

SMILES: NC(=O)CC[C@@H]1NC(=O)[C@H](Cc2ccccc2)NC(=O)[C@H](Cc2ccc(O)cc2)NC(=O)[C@@H](N)CSSC[C@@H](C(=O)N2CCC[C@H]2C(=O)N[C@@H](CCCN=C(N)N)C(=O)NCC(N)=O)NC(=O)[C@H](CC(N)=O)NC1=O [Arginine vasopressin]
- proteinuria [1]: apparent proteinuria
- rate of pregnancy (fecundity) [1]: significantly reduced the rate of pregnancy; also recorded: significantly reduced fecundity
- renal cortex electron microscopy [1]: pathognomic glomerular endotheliosis
- blood pressure in pregnancy (vasopressin 240 ng/hr sc infusion vs saline, tail-cuff): robust increase in blood pressure; also recorded: appears to induce hypertension
- fetal growth (vasopressin 240 ng/hr sc infusion, gestational day 18): substantial fetal growth restriction
